# Measured values published in US7855208B2, “3, 9-diazabicyclo(3.3.1)non-3-yl-aryl methanone derivatives as nicotinic acetylcholine receptor agonists” (NeuroSearch A/S, priority 2006, dated 2010).
# Target: T1, α7-subtype of nicotinic receptors (Rattus norvegicus, UniProt Q05941)
# T1 construct: Cerebral cortices from male Wistar rats (150-250 g) are homogenised; from tissue; host or cells: rat cerebral cortex membrane homogenate
# Experiment: In vitro inhibition of 3H-α-bungarotoxine binding in rat brain
# Conditions: rat cerebral cortex homogenate, 3H-α-bungarotoxine 2 nM
# T1 sequence (Q05941 23-502): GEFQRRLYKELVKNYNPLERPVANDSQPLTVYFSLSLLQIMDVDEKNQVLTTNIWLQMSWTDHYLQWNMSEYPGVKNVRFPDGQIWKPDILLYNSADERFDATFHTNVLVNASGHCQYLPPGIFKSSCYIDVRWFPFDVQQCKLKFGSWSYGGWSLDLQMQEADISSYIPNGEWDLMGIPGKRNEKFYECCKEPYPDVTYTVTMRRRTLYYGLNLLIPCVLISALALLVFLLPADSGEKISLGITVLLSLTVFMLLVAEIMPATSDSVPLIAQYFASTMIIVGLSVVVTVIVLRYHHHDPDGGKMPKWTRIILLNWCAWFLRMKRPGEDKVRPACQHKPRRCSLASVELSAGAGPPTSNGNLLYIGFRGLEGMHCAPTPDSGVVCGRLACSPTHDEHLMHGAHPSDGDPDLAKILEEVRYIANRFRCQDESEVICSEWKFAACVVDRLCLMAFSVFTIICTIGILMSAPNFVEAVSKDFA
row,Compound,IC50
1,CN1C2CCCC1CN(C(=O)c1ccc(-c3ccc(N)cc3)o1)C2 [Compound B1],420 nM

# Tested on: not given
# Experiment: not given
# Conditions: not given
row,Compound,melting point
1,CN1C2CCCC1CN(C(=O)c1ccc(-c3ccc([N+](=O)[O-])cc3)o1)C2.Cl,263 °C
2,CN1C2CCCC1CN(C(=O)c1ccc(-c3ccc(NC(=O)c4ccccc4)cc3)o1)C2.O=C(O)/C=C/C(=O)O,246 to 252 °C
3,CCNC(=O)Nc1ccc(-c2ccc(C(=O)N3CC4CCCC(C3)N4C)o2)cc1.O=C(O)/C=C/C(=O)O,154 to 161 °C
4,CC(=O)Nc1ccc(-c2ccc(C(=O)N3CC4CCCC(C3)N4C)o2)cc1.O=C(O)/C=C/C(=O)O,197 to 229 °C
5,CN1C2CCCC1CN(C(=O)c1ccc(-c3ccc(N)cc3)o1)C2 [Compound B1],147 to 149 °C
